For 26 compounds, NI and IC50 results are on record in ChEMBL document CHEMBL1134620, “Synthesis of potential antidipsotropic isoflavones: inhibitors of the mitochondrial monoamine oxidase-aldehyde dehydrogenase pathway” (J Med Chem, 2001).

The term IC50 denotes the point on the concentration scale where inhibition reaches its midpoint.

The subject of series [1] is Aldehyde dehydrogenase, mitochondrial (Mesocricetus auratus). The series can be described thus: Inhibition of hamster liver aldehyde dehydrogenase ALDH-2; No inhibition uM.
Series [2] relates to Monoamine oxidase (Mesocricetus auratus). The series can be described thus: Inhibition of hamster liver mitochondrial monoamine oxidase MAO.
In series [3] the target is Monoamine oxidase (Mesocricetus auratus).
For series [4], the target named is Aldehyde dehydrogenase, mitochondrial (Mesocricetus auratus). As to the kind of experiment: Inhibition of hamster liver aldehyde dehydrogenase ALDH-2.

For the compound `CCCCCCOc1ccc(-c2coc3cc(OCCCCCC)ccc3c2=O)cc1`, the NI result in series [1] and in series [2] was “No inhibition” throughout.
On to `CCOC(=O)CCCCCOc1ccc(-c2coc3cc(OCCCCCC(=O)OCC)ccc3c2=O)cc1`, for which the NI result in series [1] and in series [2] was “No inhibition” each time.
Turning to `CCCCC(Oc1ccc2c(=O)c(-c3ccc(O)cc3)coc2c1)C(=O)OCC` (stereo not given), the IC50 in series [3] is >> 9 uM.
For the compound `O=c1c(-c2ccc(OCCCCCCCCCO)cc2)coc2cc(OCCCCCCCCCO)ccc12`, the NI entry in series [1] and in series [2] was “No inhibition” throughout.
The compound `O=c1c(-c2ccc(O)cc2)coc2cc(OCCCCCCO)ccc12` came in with an IC50 in series [3] of over 9 µM.
`O=C(O)CCCCCCCOc1ccc2c(=O)c(-c3ccc(O)cc3)coc2c1` showed a half-maximal inhibitory concentration (IC50) in series [3] of 6.5 µM.
In the case of `CCCCCCCCCCCCOc1ccc(-c2coc3cc(OCCCCCCCCCCCC)ccc3c2=O)cc1`, the NI entry in series [1] and in series [2] was “No inhibition” throughout.
In the case of `O=c1c(-c2ccc(O)cc2)coc2cc(OCCCCBr)ccc12`, in series [4], it took 0.27 µM to reach half-maximal inhibition (IC50).
`O=c1c(-c2ccc(O)cc2)coc2cc(OCCCCCCCCCO)ccc12`: in series [3], the IC50 is over 9 µM.
The same measure, in the same setting: in the case of `C=CCCCCOc1ccc2c(=O)c(-c3ccc(O)cc3)coc2c1` it was 5 µM; in that of `NCCCCOc1ccc2c(=O)c(-c3ccc(O)cc3)coc2c1`, over 9 µM.
Take `O=c1c(-c2ccc(O)cc2)coc2cc(OCCCBr)ccc12`: the IC50 in series [4] amounted to 0.26 µM.
Take `CC(C)Oc1ccc(-c2coc3cc(OC(C)C)ccc3c2=O)cc1`: the NI entry in series [1] and in series [2] was “No inhibition” in each case.
Consider `CC(C)Oc1ccc2c(=O)c(-c3ccc(O)cc3)coc2c1`, for which the IC50 in series [3] turned out to be 0.2 µM. This lies in the sub-micromolar range.
`O=c1c(-c2ccc(O)cc2)coc2cc(OCCCCCCBr)ccc12` gave a half-inhibitory concentration (IC50) in series [4] of 0.3 µM.
In series [3], `O=C(O)CCCCCOc1ccc2c(=O)cc(-c3ccc(O)cc3)oc2c1` displayed an IC50 of 7 µM. This lies in the single-digit micromolar range.
For `CCOC(=O)C(C)Oc1ccc(-c2coc3cc(OC(C)C(=O)OCC)ccc3c2=O)cc1` (stereo not given), the NI entry in series [1] and in series [2] was “No inhibition” each time.
Compound `CCOC(=O)CCCCCOc1ccc2c(=O)c(-c3ccc(O)cc3)coc2c1` gave a concentration for half-maximal inhibition (IC50) in series [3] of 5.3 µM. That is a single-digit micromolar value.
For `CCOC(=O)CCCCOc1ccc2c(=O)c(-c3ccc(O)cc3)coc2c1`, in series [3], the IC50 is over 9 µM.
With `CCCCCCC(Oc1ccc2c(=O)c(-c3ccc(O)cc3)coc2c1)C(=O)OCC` (stereo not given), the IC50 in series [3] is given as >> 9 uM.
On to `COc1cc2ccc(=O)oc2cc1OC` [SCOPARONE], for which the NI result in series [1] and in series [2] was “No inhibition” in each case.
With `NCCCCCCOc1ccc2c(=O)c(-c3ccc(O)cc3)coc2c1`, the IC50 in series [3] was >> 9 uM.
Take `C=CCCCCOc1ccc(-c2coc3cc(OCCCCC=C)ccc3c2=O)cc1`: the NI entry in series [1] and in series [2] was “No inhibition” each time.
On to `CCOC(=O)CCCCOc1ccc(-c2coc3cc(OCCCCC(=O)OCC)ccc3c2=O)cc1`, for which the NI entry in series [1] and in series [2] was “No inhibition” each time.
In series [3], `O=C(O)CCCCOc1ccc2c(=O)c(-c3ccc(O)cc3)coc2c1` registered an IC50 of 5 µM.
Same read-out and setting: in the case of `O=C(O)COc1ccc2c(=O)c(-c3ccc(O)cc3)coc2c1` it was >> 9 uM.
